For 15 compounds, T/C results are on record in PubChem BioAssay AID180 (DTP/NCI, 2004).

The structures appear in SMILES notation. Several values for one entry are separate records, joined by “and”; a condition that tells them apart may be missing. Identical values can stand only once.

For this assay, the system named is BDF1 mice, Adenocarcinoma 755 s.c., tumor weight T/C. Briefly: NCI In Vivo Anticancer Drug Screen. Data for tumor model Adenocarcinoma 755 (subcutaneous) in B6D2F1 (BDF1) mice. The conditions noted are these: endpoint: mean tumor weight, higher = larger tumour. The method in brief:
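Transplantable tumor implanted; mice dosed with compound or vehicle; survival or tumor size recorded; ratio of treated to vehicle control reported.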

Where [1] appears, read: dose: 12.5 mg/kg/injection, schedule: Q01DX011 (ip), vehicle: methylcellulose (MC).
Where [2] appears, read: dose: 200.0 mg/kg/injection, schedule: Q01DX011 (ip), vehicle: methylcellulose (MC).
The mark [3] stands for this setting: dose: 60.0 mg/kg/injection, schedule: Q01DX011 (ip), vehicle: carboxymethylcellulose (CMC).
The mark [4] stands for this setting: dose: 3.1 mg/kg/injection, schedule: Q01DX011 (ip), vehicle: methylcellulose (MC).

In the case of `Nc1nc(N)c(N=O)c(Nc2ccc(Br)cc2)n1`, the T/C runs as follows: (dose: 5.0 mg/kg/injection, schedule: Q01DX011 (ip), vehicle: methylcellulose (MC)) 71 % of control; (dose: 10.0 mg/kg/injection, schedule: Q01DX011 (ip), vehicle: methylcellulose (MC)) 32 % of control; (dose: 20.0 mg/kg/injection, schedule: Q01DX011 (ip), vehicle: methylcellulose (MC)) 20 % of control and 31 % of control; (dose: 22.0 mg/kg/injection, schedule: Q01DX011 (ip), vehicle: methylcellulose (MC)) 44 % of control; (dose: 40.0 mg/kg/injection, schedule: Q01DX011 (ip), vehicle: methylcellulose (MC)) 16 % of control; (dose: 44.0 mg/kg/injection, schedule: Q01DX011 (ip), vehicle: methylcellulose (MC)) 21 % of control. In addition, where the note is “dose: 88.0 mg/kg/injection, schedule: Q01DX011 (ip), vehicle: methylcellulose (MC)”, the T/C is 20 % of control and 30 % of control.
For the compound `CCn1cnc2c(=S)nc(N)[nH]c21`, the T/C is 108 % of control (dose: 0.44 mg/kg/injection, schedule: Q01DX011 (ip), vehicle: methylcellulose (MC)); 66 % of control (dose: 0.88 mg/kg/injection, schedule: Q01DX011 (ip), vehicle: methylcellulose (MC)); 33 % of control (dose: 1.75 mg/kg/injection, schedule: Q01DX011 (ip), vehicle: methylcellulose (MC)); 3 % of control (dose: 3.5 mg/kg/injection, schedule: Q01DX011 (ip), vehicle: methylcellulose (MC)).
For the compound `Cc1cnc(SCc2ccc(Cl)cc2Cl)nc1SCc1ccc(Cl)cc1Cl`, the T/C by setting is: (dose: 31.0 mg/kg/injection, schedule: Q01DX011 (ip), vehicle: methylcellulose (MC)) 114 % of control; (dose: 125.0 mg/kg/injection, schedule: Q01DX011 (ip), vehicle: methylcellulose (MC)) 100 % of control; (dose: 250.0 mg/kg/injection, schedule: Q01DX011 (ip), vehicle: methylcellulose (MC)) 117 % of control.
Regarding `CC(=O)N(c1ccccc1)c1ccccc1`, the T/C runs as follows: (dose: 3.12 mg/kg/injection, schedule: Q01DX011 (ip), vehicle: other) 83 % of control; (dose: 6.25 mg/kg/injection, schedule: Q01DX011 (ip), vehicle: other) 92 % of control; (dose: 12.5 mg/kg/injection, schedule: Q01DX011 (ip), vehicle: other) 80 % of control; (dose: 25.0 mg/kg/injection, schedule: Q01DX011 (ip), vehicle: other) 97 % of control.
Consider `CO[C@@]12[C@H](COC(N)=O)C3=C(C(=O)C(C)=C(N)C3=O)N1C[C@@H]1N[C@@H]12`, for which the T/C (dose: 0.1 mg/kg/injection, schedule: Q01DX011 (ip), vehicle: carboxymethylcellulose (CMC)) was 82 % of control; the T/C (dose: 0.1 mg/kg/injection, schedule: Q01DX011 (ip), vehicle: methylcellulose (MC)) was 60 % of control; the T/C (dose: 0.2 mg/kg/injection, schedule: Q01DX011 (ip), vehicle: carboxymethylcellulose (CMC)) is 79 % of control; the T/C (dose: 0.25 mg/kg/injection, schedule: Q01DX011 (ip), vehicle: carboxymethylcellulose (CMC)) was 69 % of control; the T/C (dose: 0.32 mg/kg/injection, schedule: Q01DX011 (ip), vehicle: carboxymethylcellulose (CMC)) is 92 % of control and 116 % of control; the T/C (dose: 0.5 mg/kg/injection, schedule: Q01DX011 (ip), vehicle: carboxymethylcellulose (CMC)) was 17 % of control. In addition, the T/C by setting is: (dose: 0.5 mg/kg/injection, schedule: Q01DX011 (ip), vehicle: methylcellulose (MC)) 26 % of control; (dose: 0.53 mg/kg/injection, schedule: Q01DX011 (ip), vehicle: carboxymethylcellulose (CMC)) 63 % of control and 71 % of control; (dose: 0.82 mg/kg/injection, schedule: Q01DX011 (ip), vehicle: carboxymethylcellulose (CMC)) 22 % of control; (dose: 1.0 mg/kg/injection, schedule: Q01DX011 (ip), vehicle: carboxymethylcellulose (CMC)) 8 % of control; (dose: 1.0 mg/kg/injection, schedule: Q01DX011 (ip), vehicle: methylcellulose (MC)) 12 % of control; (dose: 1.02 mg/kg/injection, schedule: Q01DX011 (ip), vehicle: carboxymethylcellulose (CMC)) 14 % of control. Moreover, the T/C runs as follows: (dose: 1.36 mg/kg/injection, schedule: Q01DX011 (ip), vehicle: carboxymethylcellulose (CMC)) 5 % of control; (dose: 2.0 mg/kg/injection, schedule: Q01DX011 (ip), vehicle: carboxymethylcellulose (CMC)) 1 % of control; (dose: 180.0 micrograms/kg/injection, schedule: Q01DX011 (ip), vehicle: carboxymethylcellulose (CMC)) 89 % of control; (dose: 300.0 micrograms/kg/injection, schedule: Q01DX011 (ip), vehicle: carboxymethylcellulose (CMC)) 86 % of control; (dose: 450.0 micrograms/kg/injection, schedule: Q01DX011 (ip), vehicle: carboxymethylcellulose (CMC)) 24 % of control and 29 % of control; (dose: 512.0 micrograms/kg/injection, schedule: Q01DX011 (ip), vehicle: carboxymethylcellulose (CMC)) 87 % of control. The T/C reads like this: (dose: 900.0 micrograms/kg/injection, schedule: Q01DX011 (ip), vehicle: carboxymethylcellulose (CMC)) 5 % of control; (dose: 1025.0 micrograms/kg/injection, schedule: Q01DX011 (ip), vehicle: carboxymethylcellulose (CMC)) 63 % of control; (dose: 2050.0 micrograms/kg/injection, schedule: Q01DX011 (ip), vehicle: carboxymethylcellulose (CMC)) 8 % of control.
`O=C(CCCl)N1CCc2ccccc2C1`: the T/C is 71 % of control (dose: 25.0 mg/kg/injection, schedule: Q01DX011 (sc), vehicle: olive oil, sesame oil, peanut oil) and 99 % of control (dose: 75.0 mg/kg/injection, schedule: Q01DX011 (sc), vehicle: olive oil, sesame oil, peanut oil).
For the compound `Clc1ccc(CNc2ncnc3c2cnn3C2CCCCO2)cc1Cl` (centres undefined), the T/C under setting [1] is 83 % of control; the T/C (dose: 25.0 mg/kg/injection, schedule: Q01DX011 (ip), vehicle: methylcellulose (MC)) was 105 % of control; the T/C (dose: 100.0 mg/kg/injection, schedule: Q01DX011 (ip), vehicle: methylcellulose (MC)) is 40 % of control and 61 % of control; the T/C under setting [2] was 23 % of control.
`CC(C)Cn1cnc2c(SCc3ccc(Br)cc3)nc(N)nc21`: the T/C (dose: 50.0 mg/kg/injection, schedule: Q01DX011 (ip), vehicle: methylcellulose (MC)) is 40 % of control; the T/C (dose: 150.0 mg/kg/injection, schedule: Q01DX011 (ip), vehicle: methylcellulose (MC)) is 4 % of control; the T/C under setting [2] was 1 % of control; the T/C (dose: 400.0 mg/kg/injection, schedule: Q01DX011 (ip), vehicle: methylcellulose (MC)) was 2 % of control.
`Cc1cc2c(cc1C)NC(C)CC(=O)N2` (centres undefined): the T/C is 89 % of control (dose: 50.0 mg/kg/injection, schedule: Q01DX011 (ip), vehicle: carboxymethylcellulose (CMC)); 80 % of control (dose: 50.0 mg/kg/injection, schedule: Q01DX011 (ip), vehicle: other); 48 % of control (dose: 100.0 mg/kg/injection, schedule: Q01DX011 (ip), vehicle: other); 84 % of control (dose: 200.0 mg/kg/injection, schedule: Q01DX011 (ip), vehicle: carboxymethylcellulose (CMC)).
As to `COc1cc(N=Nc2cccc(S(=O)(=O)O)c2)ccc1NC(=O)c1ccc(C(=O)Nc2ccc(N=Nc3cccc(S(=O)(=O)O)c3)cc2OC)cc1`, the T/C was 102 % of control (dose: 30.0 mg/kg/injection, schedule: Q01DX011 (ip), vehicle: carboxymethylcellulose (CMC)); 105 % of control under setting [3]; 82 % of control (dose: 120.0 mg/kg/injection, schedule: Q01DX011 (ip), vehicle: carboxymethylcellulose (CMC)); 57 % of control (dose: 240.0 mg/kg/injection, schedule: Q01DX011 (ip), vehicle: carboxymethylcellulose (CMC)).
Consider `Nc1nc(Br)c2[nH]cnc2n1`, for which the T/C under setting [3] was 1 % of control.
With `C[C@]12CCC(=O)C=C1CC[C@H]1[C@@H]3CC[C@@]4(OCC4=O)[C@@]3(C)C[C@H](O)[C@@]12F`, the T/C is 13 % of control (dose: 75.0 mg/kg/injection, schedule: Q01DX011 (sc), vehicle: steriod suspending solution) and 11 % of control (dose: 150.0 mg/kg/injection, schedule: Q01DX011 (sc), vehicle: steriod suspending solution).
For `CCCSc1nc(N)nc2c1ncn2C1OC(CO)C(O)C1O` (centres undefined), the T/C is, setting by setting: under setting [4], 33 % of control; (dose: 6.25 mg/kg/injection, schedule: Q01DX011 (ip), vehicle: methylcellulose (MC)) 4 % of control; under setting [1], 2 % of control.
As for `CC1CCC(n2cnc3c(N)ncnc32)O1` (centres undefined), the T/C is, setting by setting: (dose: 30.0 mg/kg/injection, schedule: Q01DX011 (ip), vehicle: saline) 108 % of control; (dose: 60.0 mg/kg/injection, schedule: Q01DX011 (ip), vehicle: saline) 119 % of control; (dose: 120.0 mg/kg/injection, schedule: Q01DX011 (ip), vehicle: saline) 66 % of control; (dose: 240.0 mg/kg/injection, schedule: Q01DX011 (ip), vehicle: saline) 25 % of control.
Consider `Nc1nc(=S)c2ncn(C3CCCC3)c2[nH]1`, for which the T/C under setting [4] was 37 % of control and the T/C (dose: 6.2 mg/kg/injection, schedule: Q01DX011 (ip), vehicle: methylcellulose (MC)) is 8 % of control.

In general, T/C refers to the ratio of treated to control.
